The test system of one test is sunflower. Briefly: Field experiment: yield of sunflower seeds under Orobanche infestation. It is filed as in vivo, Helianthus annuus L. The conditions noted are these: Imazamox 30 g/ha at BBCH 14-15 and 20 g/ha at BBCH 16-18; Prohexadione-Ca 60 g/ha at BBCH 14-15 and 40 g/ha at BBCH 16-18; untreated 1127.
In another test the test system is Orobanche cumana (ORACE). The test is described as follows: Field experiment: herbicidal activity against natural Orobanche cumana infestation in sunflower, postemergence treatments. The class given is in vivo. The conditions noted are these: Imazamox 50 and/or Prohexadione-Ca 100 g a.i./ha total. An excerpt:
Host test plants were, uniform and homogeneous with respect to age, cultivar, and row spacing and distance in the row. Plot size 2.8 m×10 m-4 rows per plot. Test area was kept weed free of conventional weeds (monocotyledon and dicotyledonous weeds) by hand hoeing. Natural infestations of parasitic weeds were present in the soil of the test areas. Postemergence treatments where performed with up to 4 application timings regarding the growth stage of the host plant. Application timings are specified with M, N, O, and P and related to the following growth stages of the host test plants according to the BBCH-scale” Lancashire, […] Boom, E. Weber and A. Witzenberger, 1991: A uniform decimal code for growth stages of crops and weeds. Ann. appl. […] Sequential application were performed with the solo active components and compared to the respective mixture. The respectively stated components A) and B) were used as commercially available formulations and, with addition of a solvent system, introduced into the spray medium used for applying the active composition. In the examples, the spray medium used was water. […] The test period extended over 1 to 4 month. During this time, the plants were tended, and their response to the individual treatments was evaluated. Evaluation was carried out using a scale from 0 to 100 to express activity (in %). 100% means no emergence of the parasitic plants, or complete destruction of at least the above-ground parts, and 0% means no damage or normal course of growth of the parasitic plants. Good herbicidal activity is given at values of at least 70, and very good herbicidal activity is given at values of at least 85. In the examples below, using the method of S. R. Colby (1967) “Calculating synergistic and antagonistic responses of herbicide combinations”, Weeds 15, p. 22ff., the value E, which is expected if the activity of the individual active compounds is only additive, was calculated. E=X+Y-(X·Y/100) • where • X=percent activity using active component A) at an application rate a; • Y=percent activity using active component B) at an application rate b; • E=expected activity (in %) by A)+B) at application rates a+b. If the value found experimentally is higher than the value E calculated according to Colby, a synergistic effect is present. The herbicidal activity of the tested compositions against Orobanche cumana (ORACE) according to the invention is compiled in table V.

The test system of test [1] is Orobanche sp. (ORASS). The test is described as follows: Impact of host infestation with Orobanche, tank mixture versus single application, score 1 to 10. The class given is in vivo. The following applies: 21 days after treatment; application at BBCH 16-18; Imazamox 15 g/ha, Prohexadione-Ca 75 g/ha; value 1 (no infestation) to 10 (high negative impact). The text has this:
Seeds of sunflower (Helianthus annuus L.) where sown as host test plants using small scale field experiment equipment. Host test plants were, uniform and homogeneous with respect to age, cultivar, and row spacing and distance in the row. Plot size 2.8 m×10 m—4 rows per plot. Test area was kept weed free of conventional weeds (monocotyledon and dicotyledonous weeds) by hand hoeing. Natural infestations of parasitic weeds were present in the soil of the test areas. Sequential application were performed with the solo active components and compared to the respective mixture. The respectively stated components A) and B) were used as commercially available formulations and, with addition of a solvent system, introduced into the spray medium used for applying the active composition. In the examples, the spray medium used was water.

Test [2] has as its system Orobanche sp. (ORASS). The test is described as follows: Field experiment: delay of weed emergence and number of Orobanche plants per host plant in imazamox tolerant sunflower. It is filed as in vivo. The following applies: Imazamox 30 g/ha at BBCH 14-15 and 20 g/ha at BBCH 16-18, Prohexadione-Ca 60 g/ha at BBCH 14-15 and 40 g/ha at BBCH 16-18; for first visible emergence of orobanche (DAT): untreated 22.

Another test concerns Orobanche cumana. The following applies: reported in EP 0123001 (A1) / Fan et al., Weed Research 2007; cited from earlier work.
The mark [3] stands for this setting: timing M, N, O, P (BBCH growth stage), scale 0 to 100, 100 = no emergence or complete destruction.
Where [4] appears, read: timing M, O (BBCH growth stage), scale 0 to 100.
Setting [5] is: timing N, P (BBCH growth stage), scale 0 to 100.

Regarding prohexadione-calcium, the “yield of sunflower seeds” value with sunflower came to 961 kg/ha. The activity in % in the test with Orobanche cumana (ORACE) (setting [3]) was found to be 2%; in the test on Orobanche cumana (ORACE) (setting [4]), 5%; in the test with Orobanche cumana (ORACE) (setting [5]), 8%. For the same compound, in the test on Orobanche sp. (ORASS) [1], the “impact of host infestation with ORASS” value was determined as 6. The “no. of orobanche plants per host plant” value in the test on Orobanche sp. (ORASS) [2] came to 55. In addition, the “first visible emergence of orobanche (DAT)” value with Orobanche sp. (ORASS) [2] is 63 DAT. For the same compound, the “sunflower resistance against infection with Orobanche cumana” value with Orobanche cumana is given as “induces sunflower resistance”.
Regarding `COCc1cnc(C2=NC(C)(C(C)C)C(=O)N2)c(C(=O)O)c1` (stereo not drawn) [Imazamox, imazamox], the “yield of sunflower seeds” value in the test with sunflower was 2055 kg/ha. Also, the activity in % in the test on Orobanche cumana (ORACE) (setting [3]) was found to be 69%; with Orobanche cumana (ORACE) (setting [4]), 67%; in the test with Orobanche cumana (ORACE) (setting [5]) it was 68%. In addition, the “impact of host infestation with ORASS” value in the test with Orobanche sp. (ORASS) [1] turned out to be 4. Also, in the test on Orobanche sp. (ORASS) [2], the “no. of orobanche plants per host plant” value is 15. For the same compound, the “first visible emergence of orobanche (DAT)” value in the test with Orobanche sp. (ORASS) [2] was determined as 81 DAT.

The record behind these values is patent US9681661B2, “Method of controlling parasitic weeds with mixtures comprising herbicidal acetolactate synthase inhibitors and plant growth regulators” (BASF Agrochemical Products B.V., priority 2011, dated 2017).
